Experimental data published in patent US12480137B2, “Plants having increased tolerance to herbicides” (BASF SE, priority 2014, dated 2025).

How the values were obtained:
Type in all cases: in vivo, Arabidopsis thaliana
[1] = test system: Cesa1_G1009D, fpx2-3 mutant line; experiment: Greenhouse phytotox, post-emergent treatment 6 weeks after sowing
Description: (§1) Additionally, M2 or M3 Arabidopsis plants are tested for improved tolerance to cellulose biosynthesis-inhibiting herbicides in greenhouse studies (e. g. with the following cellulose biosynthesis-inhibiting herbicides: 6-cyclopentyl-N4-(2,3,4,5,6-pentafluorophenyl)-1,3,5-triazine-2,4-diamine; 6-(1-fluoro-1-methyl-ethyl)-N4-(2,3,4,5,6-pentafluorophenyl)-1,3,5-triazine-2,4-diamine; N4-(4-chloro-3,5,6-trifluoro-2-pyridyl)-6-(1-fluoro-1-methyl-ethyl)-1,3,5-triazine-2,4-diamine; 6-(2,6-difluorophenyl)-N4-(2,3,5,6-tetrafluorophenyl)-1,3,5-triazine-2,4-diamine; N4-(4-bromo-2,3,5,6-tetrafluoro-phenyl)-6-(1-fluoro-1-methyl-ethyl)-1,3,5-triazine-2,4-diamine.

[2] = test system: Cesa1_G1013R, fpx2-1 mutant line; experiment: as above
Description: as §1

A. thaliana WT L. erecta [3] = experiment: as above
Description: as §1

[4] = test system: Cesa3_S983F, fpx1-3 mutant line; experiment: as above
Description: as §1

[5] = test system: Cesa3_S1040L, fpx1-1 mutant line; experiment: as above
Description: as §1

[6] = test system: Cesa1_P1010L, fpx2-2 mutant line; experiment: as above
Description: as §1

[7] = test system: Cesa3_S1037F, fpx1-2 mutant line; experiment: as above
Description: as §1

[8] = test system: transgenic Arabidopsis plants, construct AtCESA1_G1013R; experiment: Growth inhibition of transgenic Arabidopsis in 48-well plates, tolerance factor from IC50; details: SEQ ID NO 1, substitution G1013R, growth inhibition seven to ten days after seeding
Source text: (§2) For transformation of Arabidopsis thaliana, wildtype or mutated cellulose synthase sequences based on one of the following sequences SEQ ID NO: 72, 73, 74, 75, 76, or 77, are cloned with standard cloning techniques as described in Sambrook et al. (Molecular cloning (2001) Cold Spring Harbor Laboratory Press) in a binary vector containing resistance marker gene cassette (AHAS) and mutated cellulose synthase sequence (marked as GOI) in between ubiquitin promoter (PcUbi) and nopaline synthase terminator (NOS) sequence. Binary plasmids are introduced to Agrobacterium tumefaciens for plant transformation. Arabidopsis thaliana are transformed with wildtype or mutated cellulose synthase sequences by floral dip method as decribed by McElver and Singh (WO 2008/124495). Transgenic Arabidopsis plants are subjected to TaqMan analysis for analysis of the number of integration loci.
(§3) Transgenic Arabidopsis thaliana plants are assayed for improved tolerance to azine herbicides like e. g. 6-cyclopentyl-N4-(2,3,4,5,6-pentafluorophenyl)-1,3,5-triazine-2,4-diamine in 48-well plates. Therefore, T2 seeds are surface sterilized by stirring for 5 min in ethanol+water (70+30 by volume), rinsing one time with ethanol+water (70+30 by volume) and two times with sterile, deionized water. The seeds are resuspended in 0.1% agar dissolved in water (w/v) Four to five seeds per well are plated on solid nutrient medium consisting of half-strength murashige skoog nutrient solution, pH 5.8 (Murashige and Skoog (1962) Physiologia Plantarum 15: 473-497). Compounds are dissolved in dimethylsulfoxid (DMSO) and added to the medium prior solidification (final DMSO concentration 0.1%). Multi well plates are incubated in a growth chamber at 22° C., 75% relative humidity and 110 μmol Phot*m^−2*s^−1 with 14:10 h light:dark photoperiod. Growth inhibition is evaluated seven to ten days after seeding in comparison to wild type plants. Tolerance factors are calculated based on IC50 values of growth inhibition of transformed versus non-transformed Arabidopsis plants.

[9] = test system: transgenic Arabidopsis plants, construct AtCESA3_wt; experiment: as above; details: SEQ ID NO 3, growth inhibition seven to ten days after seeding
Source text: as §2, §3

[10] = test system: transgenic Arabidopsis plants, construct AtCESA1 wt; experiment: as above; details: SEQ ID NO 1, growth inhibition seven to ten days after seeding
Source text: as §2, §3

[11] = test system: transgenic Arabidopsis plants, construct AtCESA3_S1037F; experiment: as above; details: SEQ ID NO 3, substitution S1037F, growth inhibition seven to ten days after seeding
Source text: as §2, §3

[12] = test system: transgenic Arabidopsis plants, construct AtCESA3_S1040L; experiment: as above; details: SEQ ID NO 3, substitution S1040L, growth inhibition seven to ten days after seeding
Source text: as §2, §3

[13] = test system: Cesa1_G1009D, fpx2-3 mutant line; experiment: Greenhouse phytotox, pre-emergent treatment
Description: as §1

[14] = test system: Cesa1_G1013R, fpx2-1 mutant line; experiment: Greenhouse phytotox, pre-emergent treatment
Description: as §1

A. thaliana WT L. erecta [15] = experiment: Greenhouse phytotox, pre-emergent treatment
Description: as §1

[16] = test system: Cesa3_S983F, fpx1-3 mutant line; experiment: Greenhouse phytotox, pre-emergent treatment
Description: as §1

[17] = test system: Cesa3_S1040L, fpx1-1 mutant line; experiment: Greenhouse phytotox, pre-emergent treatment
Description: as §1

[18] = test system: Cesa1_P1010L, fpx2-2 mutant line; experiment: Greenhouse phytotox, pre-emergent treatment
Description: as §1

[19] = test system: Cesa3_S1037F, fpx1-2 mutant line; experiment: Greenhouse phytotox, pre-emergent treatment
Description: as §1

Cc1cccc(-n2nc(C(N)=O)nc2-c2ccccc2)c1 [1-(m-tolyl)-5-phenyl-1,2,4-triazole-3-carboxamide, reference compound]
Phytotox value on a scale from 0-100 (100 is 100% damage) ([1]; 62.5 g ai/ha): 23
Phytotox value on a scale from 0-100 (100 is 100% damage) ([1]; 125 g ai/ha): 33
Phytotox value on a scale from 0-100 (100 is 100% damage) ([1]; 250 g ai/ha): 45
Phytotox value on a scale from 0-100 (100 is 100% damage) ([2]; 62.5 g ai/ha): 23
Phytotox value on a scale from 0-100 (100 is 100% damage) ([2]; 125 g ai/ha): 33
Phytotox value on a scale from 0-100 (100 is 100% damage) ([2]; 250 g ai/ha): 40
Phytotox value on a scale from 0-100 (100 is 100% damage) (A. thaliana WT L. erecta [3]; 62.5 g ai/ha): 78
Phytotox value on a scale from 0-100 (100 is 100% damage) (A. thaliana WT L. erecta [3]; 125 g ai/ha): 83
Phytotox value on a scale from 0-100 (100 is 100% damage) (A. thaliana WT L. erecta [3]; 250 g ai/ha): 95
Phytotox value on a scale from 0-100 (100 is 100% damage) ([4]; 62.5 g ai/ha): 28
Phytotox value on a scale from 0-100 (100 is 100% damage) ([4]; 125 g ai/ha): 23
Phytotox value on a scale from 0-100 (100 is 100% damage) ([4]; 250 g ai/ha): 53
Phytotox value on a scale from 0-100 (100 is 100% damage) ([5]; 62.5 g ai/ha): 0
Phytotox value on a scale from 0-100 (100 is 100% damage) ([5]; 125 g ai/ha): 23
Phytotox value on a scale from 0-100 (100 is 100% damage) ([5]; 250 g ai/ha): 55
Phytotox value on a scale from 0-100 (100 is 100% damage) ([6]; 62.5 g ai/ha): 15
Phytotox value on a scale from 0-100 (100 is 100% damage) ([6]; 125 g ai/ha): 15
Phytotox value on a scale from 0-100 (100 is 100% damage) ([6]; 250 g ai/ha): 48
Phytotox value on a scale from 0-100 (100 is 100% damage) ([7]; 62.5 g ai/ha): 30
Phytotox value on a scale from 0-100 (100 is 100% damage) ([7]; 125 g ai/ha): 50
Phytotox value on a scale from 0-100 (100 is 100% damage) ([7]; 250 g ai/ha): 68
Relative tolerance rate (non-transgenic = 1.0) [8]: 33
Relative tolerance rate (non-transgenic = 1.0) [9]: 4
Relative tolerance rate (non-transgenic = 1.0) [10]: 3
Relative tolerance rate (non-transgenic = 1.0) [11]: 1333
Relative tolerance rate (non-transgenic = 1.0) [12]: 2
Phytotox value on a scale from 0-100 (100 is 100% damage) ([13]; 3.91 g ai/ha): 0
Phytotox value on a scale from 0-100 (100 is 100% damage) ([13]; 15.63 g ai/ha): 18
Phytotox value on a scale from 0-100 (100 is 100% damage) ([13]; 62.5 g ai/ha): 30
Phytotox value on a scale from 0-100 (100 is 100% damage) ([13]; 250 g ai/ha): 45
Phytotox value on a scale from 0-100 (100 is 100% damage) ([14]; 3.91 g ai/ha): 5
Phytotox value on a scale from 0-100 (100 is 100% damage) ([14]; 15.63 g ai/ha): 15
Phytotox value on a scale from 0-100 (100 is 100% damage) ([14]; 62.5 g ai/ha): 20
Phytotox value on a scale from 0-100 (100 is 100% damage) ([14]; 250 g ai/ha): 15
Phytotox value on a scale from 0-100 (100 is 100% damage) (A. thaliana WT L. erecta [15]; 3.91 g ai/ha): 0
Phytotox value on a scale from 0-100 (100 is 100% damage) (A. thaliana WT L. erecta [15]; 15.63 g ai/ha): 63
Phytotox value on a scale from 0-100 (100 is 100% damage) (A. thaliana WT L. erecta [15]; 62.5 g ai/ha): 100
Phytotox value on a scale from 0-100 (100 is 100% damage) (A. thaliana WT L. erecta [15]; 250 g ai/ha): 100
Phytotox value on a scale from 0-100 (100 is 100% damage) ([16]; 3.91 g ai/ha): 0
Phytotox value on a scale from 0-100 (100 is 100% damage) ([16]; 15.63 g ai/ha): 8
Phytotox value on a scale from 0-100 (100 is 100% damage) ([16]; 62.5 g ai/ha): 5
Phytotox value on a scale from 0-100 (100 is 100% damage) ([16]; 250 g ai/ha): 30
Phytotox value on a scale from 0-100 (100 is 100% damage) ([17]; 3.91 g ai/ha): 38
Phytotox value on a scale from 0-100 (100 is 100% damage) ([17]; 15.63 g ai/ha): 30
Phytotox value on a scale from 0-100 (100 is 100% damage) ([17]; 62.5 g ai/ha): 0
Phytotox value on a scale from 0-100 (100 is 100% damage) ([17]; 250 g ai/ha): 25
Phytotox value on a scale from 0-100 (100 is 100% damage) ([18]; 3.91 g ai/ha): 0
Phytotox value on a scale from 0-100 (100 is 100% damage) ([18]; 15.63 g ai/ha): 20
Phytotox value on a scale from 0-100 (100 is 100% damage) ([18]; 62.5 g ai/ha): 13
Phytotox value on a scale from 0-100 (100 is 100% damage) ([18]; 250 g ai/ha): 35
Phytotox value on a scale from 0-100 (100 is 100% damage) ([19]; 3.91 g ai/ha): 0
Phytotox value on a scale from 0-100 (100 is 100% damage) ([19]; 15.63 g ai/ha): 30
Phytotox value on a scale from 0-100 (100 is 100% damage) ([19]; 62.5 g ai/ha): 23
Phytotox value on a scale from 0-100 (100 is 100% damage) ([19]; 250 g ai/ha): 68
